Measured values reported in the supplement of paper PMC10307832.

Columns and labels:
Experiment in all cases: relative viability (nuclei count vs DMSO), 5 days (fraction); higher = more cells survive
[1] = compound: Cc1ccc2nc(NCCN)c3ncc(C)n3c2c1 + C[C@@H](Oc1cc(-c2cnn(C3CCNCC3)c2)cnc1N)c1c(Cl)ccc(F)c1Cl [Crizotinib] (partner 1 µM)
In short: (§1)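 Relative viability was taken as the ratio of nuclei in treated wells to nuclei in vehicle wells. Lung cancer cell lines in 1536-well plates received compounds by pin tool one day after seeding, either one drug alone or a fixed anchor-drug dose plus five library-drug doses (not always all listed) in √10 steps. Nuclei were counted on 4× images after 5 days of treatment, and values are medians of duplicate plates.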

[2] = compound: Cc1ccc2nc(NCCN)c3ncc(C)n3c2c1 + Nc1ncn([C@H]2C[C@H](O)[C@@H](CO)O2)c(=O)n1 [Decitabine] (partner 2 µM)
In short: as §1

Salubrinal + Tozasertib = compound: O=C(/C=C/c1ccccc1)NC(NC(=S)Nc1cccc2cccnc12)C(Cl)(Cl)Cl [Salubrinal] + Cc1cc(Nc2cc(N3CCN(C)CC3)nc(Sc3ccc(NC(=O)C4CC4)cc3)n2)n[nH]1 [Tozasertib] (partner 0.1 µM)
In short: as §1

Salubrinal + Vorinostat = compound: O=C(/C=C/c1ccccc1)NC(NC(=S)Nc1cccc2cccnc12)C(Cl)(Cl)Cl [Salubrinal] + O=C(CCCCCCC(=O)Nc1ccccc1)NO [Vorinostat] (partner 1 µM)
In short: as §1

Cell Line | relative viability ([1]; first compound 0.04 µM) | relative viability ([1]; first compound 0.1265 µM) | relative viability ([1]; first compound 0.4 µM) | relative viability ([1]; first compound 1.265 µM) | relative viability ([1]; first compound 4 µM) | relative viability ([2]; first compound 0.04 µM) | relative viability ([2]; first compound 0.1265 µM) | relative viability ([2]; first compound 0.4 µM) | relative viability ([2]; first compound 1.265 µM) | relative viability ([2]; first compound 4 µM) | relative viability (Salubrinal + Tozasertib; first compound 0.08 µM) | relative viability (Salubrinal + Tozasertib; first compound 0.253 µM) | relative viability (Salubrinal + Tozasertib; first compound 0.8 µM) | relative viability (Salubrinal + Tozasertib; first compound 2.53 µM) | relative viability (Salubrinal + Tozasertib; first compound 8 µM) | relative viability (Salubrinal + Vorinostat; first compound 0.08 µM) | relative viability (Salubrinal + Vorinostat; first compound 0.253 µM) | relative viability (Salubrinal + Vorinostat; first compound 0.8 µM) | relative viability (Salubrinal + Vorinostat; first compound 2.53 µM) | relative viability (Salubrinal + Vorinostat; first compound 8 µM)
HCC-44 | 0.851 | 0.827 | 0.768 | 0.828 | 0.835 | 0.981 | 0.946 | 0.923 | 0.94 | 1 | 1.24 | 0.916 | 1.08 | 0.74 | 0.708 | 1.04 | 1.1 | 1.13 | 1 | 1.04
HCC-827 | 0.792 | 0.903 | 0.932 | 0.866 | 0.927 | 0.335 | 0.325 | 0.333 | 0.391 | 0.284 | 0.429 | 0.423 | 0.406 | 0.417 | 0.432 | 0.838 | 0.917 | 0.965 | 0.788 | 0.785
NCI-H2342 |  |  |  |  |  | 0.688 | 0.73 | 0.799 | 0.737 | 0.72 | 0.457 | 0.503 | 0.527 | 0.583 | 0.533 | 0.666 | 0.631 | 0.715 | 0.668 | 0.768
NCI-H2347 | 0.653 | 0.673 | 0.615 | 0.617 | 0.625 | 0.605 | 0.664 | 0.603 | 0.645 | 0.585 | 0.619 | 0.543 | 0.617 | 0.51 | 0.568 | 0.558 | 0.514 | 0.608 | 0.686 | 0.639
